From patent publication US9283160B2, “Stabilization of cosmetic compositions” (BASF SE, priority 2009, dated 2016) come the findings set out here.

This data set in a line: Photodegradation of UV absorber combinations, plate-test (recovery after UV irradiation). The class given is physicochemical. The settings on record: 0-50 MED UV; for Photostabilization of components (e) and (f) after irradiation (summary of Table 5): in presence of piperazine bi-aminobenzophenone. How it is done: For the determination of photodegradation the so-called “plate-test” is employed: • 2 μl/cm^2 of the formulations are spread on quartz plates (sand-blasted surface of 2.8 cm^2), and rinsed off the plates after 0, 5, 10, 20, and 50 MED of UV irradiation using an Atlas CPS+ solar simulator.
The substances tagged with an asterix (*) are those the recovery percentages refer to. The percentage of component (a) refers to the active.
The experimental error in terms of the standard deviation is in the range of ±3%.

Take `CCCCC(CC)COC(=O)C=Cc1ccc(OC)cc1` (stereo not shown) [ethylhexyl methoxycinnamate, 2-ethylhexyl 4-methoxycinnamate]: the “Photostabilization of component (b) after irradiation (summary of Table 4)” value (combination with piperazine bi-aminobenzophenone, bis-ethylhexyloxyphenol methoxyphenyl triazine added) is reported as “can be stabilized by addition of bis-ethylhexyloxyphenol methoxyphenyl triazine”. For the same molecule, under “combination with piperazine bi-aminobenzophenone, octocrylene added”, the “Photostabilization of component (b) after irradiation (summary of Table 3)” value is “can be stabilized by addition of octocrylene”.

Regarding `CCCCC(CC)COC(=O)c1ccc(Nc2nc(Nc3ccc(C(=O)OCC(CC)CCCC)cc3)nc(Nc3ccc(C(=O)OCC(CC)CCCC)cc3)n2)cc1` (stereo not shown) [ethylhexyl triazone, Ethylhexyl triazone], the “Photostabilization of components (e) and (f) after irradiation (summary of Table 5)” value is listed as “photostabilized in the presence of piperazine bi-aminobenzophenone”.

Regarding `CCCCC(CC)COC(=O)c1ccc(Nc2nc(Nc3ccc(C(=O)NC(C)(C)C)cc3)nc(Nc3ccc(C(=O)OCC(CC)CCCC)cc3)n2)cc1` (stereo not shown) [di-octyl butamido triazone, Benzoic acid, 4,4′-[[6-[[4-[[(1,1-dimethylethyl)amino]carbonyl]-phenyl]amino]1,3,5-triazine-2,4-diyl]diimino]bis-, bis(2-ethyl-hexyl)ester], the “Photostabilization of components (e) and (f) after irradiation (summary of Table 5)” value is “photostabilized in the presence of piperazine bi-aminobenzophenone”.
